{"source": "paper PMC7394103", "about": "(Frontiers in Pharmacology, 2020)", "key": {"[1]": {"tested_on": "CII-specific Abs in CIA mice", "experiment": "Anti-CII antibody ELISA in serum of CIA mice", "type": "in vivo", "conditions": "30 mg/kg i.p. daily, day 8 to 42, vs saline", "method": "Serum samples from mice with CIA were collected on day 44 after CII injection. Samples of the diluted sera were added to microtiter plates (Greiner Bio-One, Monroe, NC, USA) coated with 2 μg/ml ELISA grade mouse CII (Chondrex). Horseradish peroxidase-conjugated goat […] total IgG, IgG1, IgG2a, IgG2b, and IgG3 (Southern Biotechnology Associates, Birmingham, AL, USA) were used for detection. The samples were developed with 2,2’-azino-bis(3-ethylbenzothiazoline-6-sulphonic acid (Moss Inc., Pasadena, MD, USA), and absorbance was monitored at 415 nm using a SpectraMax Plus microplate reader. Endpoint titer represents reciprocal log 2 for the serum dilution with absorbance ≥ 0.1 above negative control."}, "CAIA in BALB/c mice": {"tested_on": "CAIA in BALB/c mice", "experiment": "Collagen-antibody-induced arthritis (CAIA), clinical score and histopathology", "type": "in vivo", "conditions": "for CAIA joint histopathology / severity of CAIA (mean arthritis score): 30 mg/kg i.p. daily; for CAIA joint histopathology: day 1 to 9, vs saline; for severity of CAIA (mean arthritis score): day 1 to 9, vs vehicle; for therapeutic effect in CAIA compared to IQ-1S: 30 mg/kg i.p., days 6 and 7", "method": "CAIA was induced in 7- to 8-week-old BALB/c mice from Charles River Laboratories (Wilmington, MA, USA) by i.p. injection of a cocktail of monoclonal anti-CII antibodies (Chondrex; 1.5 mg/mouse) on day 0, followed by i.p. lipopolysaccharide (LPS) injection (30 μg LPS from Escherichia coli strain 0111:B4 in PBS) on day 3. Control animals received an equal volume of PBS.\nArthritis development was evaluated daily for 10 days post-injection of the monoclonal antibody cocktail. Arthritis symptoms were scored on scale of 0 to 4 in accordance with the Chondrex Mouse Arthritis Scoring System in a blinded manner, as follows: 0, no signs of inflammation; 1, mild redness or swelling of single joint (one of the interphalangeal joints, metacarpophalangeal joints, carpal joint for the front paw, and tarsal joint for the hind); 2, two joints have redness and swelling; 3, all three joint types have redness and swelling; 4, maximal redness and swelling of entire paw leads to the disappearance of anatomical definition.\nIn CAIA, animals were sacrificed on day 14, and their forward and hind limbs were processed as described above. Three sections in the sagittal projection of joints, 40 µm apart, were examined by the same system with the grades ranging 0 to 4. Total H&E histopathological score for three sections included cartilage destruction, pannus formation, and synovial cells changes. For cartilage destruction, the scale was: 0—normal, superficial zone is smooth; 1—superficial fibrillations, some loss of surface lamina; 2—vertical clefts/erosion to the calcified cartilage up to 25% of the surface; 3—vertical clefts/erosion to the calcified cartilage 25% to 50% of the surface, 4—vertical clefts/erosion to the calcified cartilage more than 50% of the surface, severe chondrocytes, and cartilage matrix loss with new bone tissue substitution. For pannus formation the scale was: 0—normal; 1—exudate in the joint; 2—single inflammatory cells in the exudate; 3—mild infiltration of the inflammatory cells; 4—heavy inflammatory infiltration and debris in the joint. For synovial membrane changes the scale was: 0 – normal, 1 to 2 layer of synovial lining cells; 1—initial hyperplasia of the cells and increased number of lining cells layers; 2—increased number of lining cell layers, more than 3 to 4 layers and/or proliferation of sub-synovial tissue; 3—more than 4 layers of lining cells, focal infiltration of inflammatory cells, proliferation of subsynovial tissue; 4—more than four layers of lining cells, diffused infiltration of inflammatory cells, proliferation of sub-synovial tissue."}, "JNK2": {"tested_on": "JNK2", "design": "method as in Schepetkin et al., 2019", "conditions": "kinase profiling; ref Schepetkin et al., 2019; cited from earlier work"}, "[2]": {"experiment": "Cytotoxicity assay (CellTiter-Glo), THP-1", "type": "cell-based", "conditions": "human, THP-1 cells; concentrations up to 50 µM; read-out: Cytotoxic effect THP-1 IC50", "method": "Cytotoxicity was analyzed using a CellTiter-Glo Luminescent Cell Viability Assay Kit (Promega), according to the manufacturer’s protocol. Briefly, cells were cultured at a density of 10^4 to 10^5 cells/well with different concentrations of test compounds (final concentration of DMSO was 1%) for the indicated periods of time (2, 12, or 24 h) at 37°C and 5% CO2. Following treatment, substrate was added to the cells, and the samples were analyzed with a Fluoroscan Ascent FL microplate reader."}, "[3]": {"tested_on": "MMP-3 secretion by SW982 cells", "experiment": "IL-1β-induced MMP-3 secretion by SW982 cells (ELISA)", "type": "cell-based", "conditions": "Homo sapiens, 30 min compound, then 5 ng/ml IL-1β, 24 h", "method": "FLS, HUVEC, SW982, and THP-1 cells were plated in 96 well plates (10^4 to 10^5 cells/well) for 48 h before treatment. At 2 days post-confluency, the cells were serum-starved and washed twice (with the exception of THP-1 cell, which were not washed) with FBS-free medium prior to the addition of test compounds. The cells were incubated in the presence or absence of test compounds or DMSO (vehicle control) for 30 min at 37°C in a 5% CO2 atmosphere, IL-1β (5 ng/ml) was added, and the cells were incubated for an additional 24 h. Culture supernatants were collected and stored at –80°C. The levels of MMP-1 and MMP-3 were determined in culture supernatants using commercially available ELISA kits according to the manufacturer’s instructions (R&D System, Minneapolis, MN, USA). IL-6 levels were also determined in the supernatants using a human IL-6 ELISA kit (BD Biosciences, San Jose, CA, USA)."}, "[4]": {"tested_on": "c-Jun phosphorylation in FLS", "experiment": "c-Jun phosphorylation in IL-1β-stimulated FLS (Western blot)", "type": "cell-based, human", "conditions": "1 h pretreatment, 2 ng/ml IL-1β 15 min", "method": "Cultured FLS (passage 4) were plated at 2 × 10^5 cells in six-well plates overnight in DMEM containing 10% FBS and synchronized for 24 h in DMEM/0.1% FBS. […] The cells were then washed once with ice-cold PBS and lysed with modified radioimmunoprecipitation assay buffer [50 mM HEPES, pH 7.4, 150 mM NaCl, 1% Triton X-100, 10% glycerol, 2.5 mM MgCl2, 1.0 mM EDTA, 20 mM β-glycerophosphate, 10 mM NaF, 1 mM Na3VO4, and Protease inhibitor cocktail (Roche, Indianapolis, IN)]. Protein concentration of the lysates was measured using a MicroBCA Assay kit (Pierce, Rockford, IL), and 40 μg lysate was subjected to 10% SDS-PAGE and Western blot analysis. Anti–phospho-c-Jun (Ser63) was purchased from Cell Signaling Technology (Danvers, MA), and anti-mouse GAPDH was from Santa Cruz Biotechnology (Santa Cruz, CA)."}}}
{"smiles": "O=C1c2ccccc2-n2c1nc1ccccc1c2=O", "note": "[TRYP, indolo[2,1-b]quinazolin-6,12-dione]", "values": [{"measurement": "titers of CII-specific IgG, IgG1, IgG2a, IgG2b, IgG3", "setting": "[1]", "result": "significantly lower"}, {"measurement": "CAIA joint histopathology", "setting": "CAIA in BALB/c mice", "result": "little cartilage erosion, synovial hyperplasia, or cellular infiltration"}, {"measurement": "severity of CAIA (mean arthritis score)", "setting": "CAIA in BALB/c mice", "result": "significant reductions in the severity of CAIA"}, {"measurement": "therapeutic effect in CAIA compared to IQ-1S", "setting": "CAIA in BALB/c mice", "result": "significantly greater"}, {"measurement": "binding affinity for JNK2", "setting": "JNK2", "result": "no binding affinity"}, {"measurement": "IC50", "setting": "[2]", "result": "18.2 ± 2.3", "unit": "µM"}, {"measurement": "IC50", "setting": "[3]", "result": "8.7 ± 0.3", "unit": "µM"}, {"measurement": "c-Jun phosphorylation", "setting": "[4]", "result": "had no effect"}]}
{"smiles": "O=c1c2ccccc2nc2n1-c1ccccc1/C2=N/O", "note": "[TRYP-Ox, tryptanthrin-6-oxime]", "values": [{"measurement": "titers of CII-specific IgG, IgG1, IgG2a, IgG2b, IgG3", "setting": "[1]", "result": "significantly lower"}, {"measurement": "CAIA joint histopathology", "setting": "CAIA in BALB/c mice", "result": "little cartilage erosion, synovial hyperplasia, or cellular infiltration"}, {"measurement": "severity of CAIA (mean arthritis score)", "setting": "CAIA in BALB/c mice", "result": "significant reductions in the severity of CAIA"}, {"measurement": "therapeutic effect in CAIA compared to IQ-1S", "setting": "CAIA in BALB/c mice", "result": "significantly greater"}, {"measurement": "binding affinity for JNK2", "setting": "JNK2", "result": "high binding affinity"}, {"measurement": "IC50", "setting": "[2]", "result": "> 50", "unit": "µM"}, {"measurement": "IC50", "setting": "[3]", "result": "1.4 ± 0.1", "unit": "µM"}, {"measurement": "c-Jun phosphorylation", "setting": "[4]", "result": "inhibited c-Jun phosphorylation"}]}
